Test results reported in US20230174484A1, “ANTAGONISTS OF GPR39 PROTEIN” (Oregon Health & Science University, priority 2020, published 2023).

Molecular target: T1, human GPR39 receptor (Homo sapiens, UniProt O43194)
T1 construct: PC3 Cells, Expressing the Endogenous Human GPR39 Receptor; endogenous in cells; host or cells: PC3 (human prostate adenocarcinoma) cells
T1 sequence (O43194 1-453): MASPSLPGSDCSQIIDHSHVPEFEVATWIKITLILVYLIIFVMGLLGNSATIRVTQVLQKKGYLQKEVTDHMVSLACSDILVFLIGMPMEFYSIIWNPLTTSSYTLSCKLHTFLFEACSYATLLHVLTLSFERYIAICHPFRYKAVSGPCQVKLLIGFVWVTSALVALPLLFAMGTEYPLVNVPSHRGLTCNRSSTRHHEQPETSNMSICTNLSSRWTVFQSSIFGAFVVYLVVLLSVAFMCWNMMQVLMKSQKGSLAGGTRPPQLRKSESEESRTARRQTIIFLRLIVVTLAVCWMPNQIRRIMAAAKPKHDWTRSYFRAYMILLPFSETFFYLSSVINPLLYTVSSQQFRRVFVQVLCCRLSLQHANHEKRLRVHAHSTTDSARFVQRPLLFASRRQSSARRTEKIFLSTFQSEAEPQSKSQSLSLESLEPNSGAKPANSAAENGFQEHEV
Assay: Measurement of intracellular calcium response in PC3 cells (FLIPR), antagonism of the C3 agonist response
Format: cell-based
Details: for Ki: functional pKi (modified Cheng-Prusoff), inhibition of the C3 (TC-G 1008) response at EC90, 30 μM ZnCl2, read-out: fpKi activity
Method in brief: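 Potency was reported as fpKi, converted by modified Cheng-Prusoff from four-parameter IC50 fits against an EC90 C3 agonist challenge. Calcium-6 FLIPR readings used PC3 cells naturally expressing human GPR39, in pH 7.4 HEPES buffer containing 30 μM final ZnCl2. Score bands: +/± <5.2, + 5.2–5.9, ++ 6.0–6.5, +++ 6.6–7.2, ++++ ≥7.3.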

| Compound | Ki | EC90 (PC-3, hGPR39 receptor agonist, calcium response, read-out: EC90 (concentration producing 90% of the maximal response)) |
| --- | --- | --- |
| CN1CCN(C(=O)c2ccc(NC(=O)C3CC3)cc2N2CCCC2)C(c2cccc(F)c2)C1 (single isomer, unassigned) [Example 88a, N-[4-[2-(3-fluorophenyl)-4-methylpiperazine-1-carbonyl]-3-pyrrolidin-1-ylphenyl]cyclopropanecarboxamide] | 63.1 to 251 nM | – |
| O=C(Nc1ccc(C(=O)N2CCS(=O)(=O)CC2)c(-n2ccc(C3CC3)n2)c1)C1CC1 [Example 180, N-[3-(3-cyclopropylpyrazol-1-yl)-4-(1,1-dioxo-1,4-thiazinane-4-carbonyl)phenyl]cyclopropanecarboxamide] | ≤ 50.1 nM | – |
| CC(C)C1CCN(c2nc(NC(=O)C3CC3)ccc2C(=O)N2CCS(=O)(=O)CC2)C1 (racemic) [Example 142, N-[5-(1,1-dioxo-1,4-thiazinane-4-carbonyl)-6-(3-propan-2-ylpyrrolidin-1-yl)pyridin-2-yl]cyclopropanecarboxamide] | ≤ 50.1 nM | – |
| CN1CCN(C(=O)c2ccc(NC(=O)C3CC3)cc2N2CCCCC2)C(c2ccccc2)C1 (racemic) [Example 201c, N-[4-(4-methyl-2-phenylpiperazine-1-carbonyl)-3-piperidin-1-ylphenyl]cyclopropanecarboxamide] | 63.1 to 251 nM | – |
| CN1CCN(C(=O)c2ccc(-c3nnc(C4CC4)[nH]3)cc2N2CCCC2)C(c2ccccc2)C1 (single isomer, unassigned) [Example 151b, (2R or 2S) [4-(5-cyclopropyl-4H-1,2,4-triazol-3-yl)-2-pyrrolidin-1-ylphenyl]-(4-methyl-2-phenylpiperazin-1-yl)methanone] | 1260 to 6310 nM | – |
| CC1CC(C)CN(c2cc(NC(=O)C3CC3)ccc2C(=O)N2CCN(C)CC2c2ccccc2)C1 (single isomer, unassigned) [Example 68d, Anti N-[3-[3,5-dimethylpiperidin-1-yl]-4-(4-methyl-2-phenylpiperazine-1-carbonyl)phenyl]cyclopropanecarboxamide] | 63.1 to 251 nM | – |
| O=C(Nc1ccc(C(=O)N2CCN(Cc3cccnc3)CC2)c(N2CCCCCC2)c1)C1CC1 [Example 32, N-(3-(azepan-1-yl)-4-(4-(pyridin-3-ylmethyl)piperazine-1-carbonyl)phenyl)cyclopropanecarboxamide] | 316 to 1000 nM | – |
| Cc1noc(-c2ccc(C(=O)N3CCC(C(F)(F)F)CC3)c(N3CCCC3)c2)n1 [Example 152, [4-(3-methyl-1,2,4-oxadiazol-5-yl)-2-pyrrolidin-1-ylphenyl]-[4-(trifluoromethyl)piperidin-1-yl]methanone] | 316 to 1000 nM | – |
| CC(C)c1ccn(-c2cc(NC(=O)C3CC3)ccc2C(=O)N2CCS(=O)(=O)CC2)n1 [Example 179, N-[4-(1,1-dioxo-1,4-thiazinane-4-carbonyl)-3-(3-propan-2-ylpyrazol-1-yl)phenyl]cyclopropanecarboxamide] | ≤ 50.1 nM | – |
| O=C(Nc1ccc(C(=O)N2CCN(C3CCCC3)CC2)c(N2CCCCCC2)c1)C1CC1 [Example 53, N-[3-(azepan-1-yl)-4-(4-cyclopentylpiperazine-1-carbonyl)phenyl]cyclopropanecarboxamide] | 316 to 1000 nM | – |
| Cc1nnc(-c2ccc(C(=O)N3CCC(F)(F)CC3)c(-n3ccc(C4CC4)n3)c2)[nH]1 [Example 209, [2-(3-cyclopropylpyrazol-1-yl)-4-(5-methyl-4H-1,2,4-triazol-3-yl)phenyl]-(4,4-difluoropiperidin-1-yl)methanone] | ≤ 50.1 nM | – |
| O=C(Nc1ccc(C(=O)N2CCN(c3ccccc3)CC2)c(N2CCCCCC2)c1)C1CC1 [Example 52, N-(3-(azepan-1-yl)-4-(4-phenylpiperazine-1-carbonyl)phenyl)cyclopropanecarboxamide] | 63.1 to 251 nM | – |
| O=C(Nc1ccc(C(=O)N2CCN(Cc3ccccc3Cl)CC2)c(N2CCCCCC2)c1)C1CC1 [Example 31, N-(3-(azepan-1-yl)-4-(4-(2-chlorobenzyl)piperazine-1-carbonyl)phenyl) Cyclopropanecarboxamide] | 316 to 1000 nM | – |
| C[C@@H]1C[C@@H](C)CN(c2cc(NC(=O)C3CC3)ccc2-c2ncc3n2CCN(C)C3)C1 (relative stereo) [Example 104a, N-[3-(3,5-dimethylpiperidin-1-yl)-4-(7-methyl-6,8-dihydro-5H-imidazo[1,5-a]pyrazin-3-yl)phenyl] cyclopropanecarboxamide] | 316 to 1000 nM | – |
| CCCN1CCN(C(=O)c2ccc(NC(=O)C3CC3)cc2N2CCCCCC2)C(c2ccccc2)C1 (single isomer, unassigned) [Example 73b, N-[3-(azepan-1-yl)-4-(2-phenyl-4-propylpiperazine-1-carbonyl)phenyl]Cyclopropanecarboxamide] | 1260 to 6310 nM | – |
| Cc1nnc(-c2ccc(C(=O)N3CCC(C(F)(F)F)CC3)c(N3CCCC3)c2)[nH]1 [Example 153, [4-(5-methyl-4H-1,2,4-triazol-3-yl)-2-pyrrolidin-1-ylphenyl]-[4-(trifluoromethyl)piperidin-1-yl]methanone] | 63.1 to 251 nM | – |
| CCCN1CCN(C(=O)c2ccc(NC(=O)C3CCC3)cc2N2CCCCCC2)CC1 [Example 90, N-(3-(azepan-1-yl)-4-(4-propylpiperazine-1-carbonyl)phenyl)cyclobutanecarboxamide] | 1260 to 6310 nM | – |

| Compound | Ki | EC90 (PC-3, hGPR39 receptor agonist, calcium response, read-out: EC90 (concentration producing 90% of the maximal response)) |
| --- | --- | --- |
| CN1CCN(C(=O)c2ccc(NC(=O)C3CC3)cc2N2CCCC2)C(c2cccnc2)C1 (racemic) [Example 173, N-[4-(4-methyl-2-pyridin-3-ylpiperazine-1-carbonyl)-3-pyrrolidin-1-ylphenyl]cyclopropanecarboxamide] | 316 to 1000 nM | – |
| CCCN1CCN(C(=O)c2ccc(NC(=O)C3CC3)cc2N2CCC(c3ccccc3)C2)CC1 (stereo not drawn) [Example 5, N-(3-(3-phenylpyrrolidin-1-yl)-4-(4-propylpiperazine-1-carbonyl)phenyl) cyclopropanecarboxamide] | 316 to 1000 nM | – |
| CN1CCN(C(=O)c2ccc(NC(=O)C3CC3)nc2N2CCCCC2)C(c2ccccc2)C1 (racemic) [Example 147, N-[5-(4-methyl-2-phenylpiperazine-1-carbonyl)-6-piperidin-1-ylpyridin-2-yl]cyclopropanecarboxamide] | 63.1 to 251 nM | – |
| CCCN1CCN(C(=O)c2ccc(NC(=O)C3CC3)cc2N2CCCC2)CC1 [Example 16, N-[4-(4-propylpiperazine-1-carbonyl)-3-(pyrrolidin-1-yl)phenyl] Cyclopropanecarboxamide] | 63.1 to 251 nM | – |
| CCCN1CCN(C(=O)c2ccc(NC(=O)C3CC3)cc2-c2ccccc2)CC1 [Example 10, N-(6-(4-propylpiperazine-1-carbonyl)-[1,1′-biphenyl]-3-yl)cyclopropanecarboxamide] | 1260 to 6310 nM | – |
| CCCN1CCN(C(=O)c2ccc(NC(=O)C3CC3)cc2N2C[C@@H](C)C[C@H](C)C2)CC1 (relative stereo) [Example 14b] | 63.1 to 251 nM | – |
| CN1CCN(C(=O)c2ccc(NC(=O)C3CC3)cc2N2CCCCCC2)C(CO)C1 (stereo not drawn) [Example 77, N-[3-(azepan-1-yl)-4-[2-(hydroxymethyl)-4-methylpiperazine-1-carbonyl]phenyl]cyclopropanecarboxamide] | 1260 to 6310 nM | – |
| CN1CCN(C(=O)c2ccc(NC(=O)C3CC3)cc2N2CCCC2)C(c2ccccc2F)C1 (racemic) [Example 84c, N-[4-[2-(2-fluorophenyl)-4-methylpiperazine-1-carbonyl]-3-pyrrolidin-1-ylphenyl]cyclopropanecarboxamide] | 63.1 to 251 nM | – |
| O=C(Nc1ccc(C(=O)N2CCC3(CC2)CC3)c(N2CCCC2)c1)C1CC1 [Example 220, N-[4-(6-azaspiro[2.5]octane-6-carbonyl)-3-pyrrolidin-1-ylphenyl]cyclopropanecarboxamide] | 63.1 to 251 nM | – |
| CCCN1CCN(C(=O)c2ccc(NC(=O)C3CC3)cc2-c2ccccn2)CC1 [Example 11, N-(4-(4-propylpiperazine-1-carbonyl)-3-(pyridin-2-yl)phenyl)cyclopropanecarboxamide] | 316 to 1000 nM | – |
| Cn1c(Sc2ccccc2)nnc1-c1ccc(NC(=O)C2CC2)cc1N1CCCCCC1 [Example 110, N-[3-(azepan-1-yl)-4-(4-methyl-5-phenylsulfanyl-1,2,4-triazol-3-yl)phenyl]cyclopropanecarboxamide] | 63.1 to 251 nM | – |
| CNc1nc(NCc2ccc(NS(C)(=O)=O)cc2Cl)cc(-c2ccccn2)n1 [Example C3, reference compound] | – | 1500 nM |
| O=C(Nc1ccc(C(=O)N2CCSCC2c2ccccc2)c(N2CCCC2)c1)C1CC1 (stereo not drawn) [Example 58, N-[4-(3-phenylthiomorpholine-4-carbonyl)-3-pyrrolidin-1-ylphenyl]cyclopropanecarboxamide] | 63.1 to 251 nM | – |
| CCCN1CCN(C(=O)c2ccc(NC(=O)C3CC3)nc2N2CCCCCC2)CC1 [Example 108] | 63.1 to 251 nM | – |
| O=C(Nc1ccc(C(=O)N2CCN(Cc3ccccc3F)CC2)c(N2CCCCCC2)c1)C1CC1 [Example 28, N-(3-(azepan-1-yl)-4-(4-(2-fluorobenzyl)piperazine-1-carbonyl)phenyl) Cyclopropanecarboxamide] | 63.1 to 251 nM | – |
| CN1CCN(C(=O)c2ccc(NC(=O)C3CC3)cc2N2CCOCC2)C(c2ccccc2)C1 (stereo not drawn) [Example 200, N-[4-(4-methyl-2-phenylpiperazine-1-carbonyl)-3-morpholin-4-ylphenyl]cyclopropanecarboxamide] | 1260 to 6310 nM | – |
